In patent US20250250231A1, “NOVEL SUBSTITUTED 4-AMINO-4-OXO-BUT-2-ENYL DERIVATIVES, PROCESSES FOR THEIR PREPARATION AND THERAPEUTIC USES THEREOF” (SANOFI, priority 2022, published 2025):

What was measured:
Type in all cases: cell-based
MCF7-Y537S cells = test: In vitro anti-proliferation assay (CellTiter-Glo viability), MCF7-Y537S cells; settings: Homo sapiens, MCF7, 192 h, viability on day 8, relative IC50
Experimental: (§1) Test: In vitro anti-proliferation assay
(§2) Said test involves measuring the in vitro anti-proliferation activity of the compounds of the Table 1a.
(§3) The measurements of the anti-proliferation activities were made using MCF7-WT (ATCC), MCF7-Y537S and HCC1428-LTED cells as described hereunder.
(§4) On Day 1, MCF7-WT and MCF7-Y537S (Mol Cancer Ther. 2021 20(2):250-262), and HCC1428-LTED (J Clin Invest. 2010; 120(7):2406-2413) cells, were seeded at 2000 (WT and LTED) and 500 (Y537S) cells/well in phenol red free IMEM (Corning, 110-026-CV) with 5% Charcoal stripped-FBS and incubated overnight 37° C. and 5% CO2.
(§5) On day 2, compounds were tested in triplicate in 10-point dose response (1:3 serial dilutions with a top concentration starting 300 nM); DMSO for upper limit (negative control) and staurosporine (1 uM) for lower limit (positive control) were also included. MCF7-WT cells were then supplemented with final 0.1 nM b-estradiol. After treating the cells, the assay plates were transferred back in the incubator at 37° C. and 5% CO2.
(§6) On day 8, cell viability was measured per vendor recommendations (CellTiter-Glo, Promega). Relative IC50 measurements were calculated as follow using a 4-parameter logistic derived from Levenburg Marquardt algorithm (IDBS XL Model 205 fit within A-base).

HCC1428-LTED cells = test: In vitro anti-proliferation assay (CellTiter-Glo viability), HCC1428-LTED cells; settings: Homo sapiens, HCC1428, 192 h, viability on day 8, relative IC50, read-out: HCC 1428 IC50
Experimental: as §1, §2, §3, §4, §5, §6

MCF7-WT cells = test: In vitro anti-proliferation assay (CellTiter-Glo viability), MCF7-WT cells; settings: Homo sapiens, MCF7, 192 h, MCF7-WT cells supplemented with 0.1 nM b-estradiol; viability on day 8; relative IC50
Experimental: as §1, §2, §3, §4, §5, §6

With `CN(C)C(=O)/C=C/CN1CC[C@H](Oc2ccc(C3=C(c4ccccc4)CCCc4cc(C(=O)O)ccc43)cc2)C1` [Compound 6, (S,E)-9-(4-((1-(4-(dimethylamino)-4-oxobut-2-en-1-yl)pyrrolidin-3-yl)oxy)phenyl)-8-phenyl-6,7-dihydro-5H-benzo[7]annulene-3-carboxylic acid] the IC50 (MCF7-Y537S cells) was no less than 500 nM, the IC50 (HCC1428-LTED cells) was 0.7 nM and the IC50 (MCF7-WT cells) was 14 nM.

`COc1ccc(C2=C(c3ccc(O[C@H]4CCN(C/C=C/C(=O)N(C)C)C4)cc3)c3ccc(C(=O)O)cc3CCC2)c(F)n1` [Compound 10, (S,E)-9-(4-((1-(4-(dimethylamino)-4-oxobut-2-en-1-yl)pyrrolidin-3-yl)oxy)phenyl)-8-(2-fluoro-6-methoxypyridin-3-yl)-6,7-dihydro-5H-benzo[7]annulene-3-carboxylic acid] showed an IC50 (MCF7-Y537S cells) of no less than 500 nM, an IC50 (HCC1428-LTED cells) of 0.3 nM and an IC50 (MCF7-WT cells) of 8 nM.

Work on `CN(C)C(=O)/C=C/CNCCOc1ccc(C2=C(c3ccc(Cl)cc3Cl)CCCc3cc(C(=O)O)ccc32)cc1` [Compound 22, (E)-8-(2,4-dichlorophenyl)-9-(4-(2-((4-(dimethylamino)-4-oxobut-2-en-1-yl)amino)ethoxy)phenyl)-6,7-dihydro-5H-benzo[7]annulene-3-carboxylic acid] yielded an IC50 (MCF7-Y537S cells) of 184 nM, an IC50 (HCC1428-LTED cells) of 0.6 nM and an IC50 (MCF7-WT cells) of 11 nM.

`CN(C)C(=O)/C=C/CN1CC[C@H](Nc2ccc(C3=C(c4ccc(Cl)cc4Cl)CCCc4cc(C(=O)O)ccc43)cc2)C1` [Compound 16, (S,E)-8-(2,4-dichlorophenyl)-9-(4-((1-(4-(dimethylamino)-4-oxobut-2-en-1-yl)pyrrolidin-3-yl)amino)phenyl)-6,7-dihydro-5H-benzo[7]annulene-3-carboxylic acid] showed an IC50 (MCF7-Y537S cells) of 174 nM, an IC50 (HCC1428-LTED cells) of 33 nM and an IC50 (MCF7-WT cells) of 37 nM.

For `CN(C)C(=O)/C=C/CN1CC[C@@H](Nc2ccc(C3=C(c4ccc(Cl)cc4Cl)CCCc4cc(C(=O)O)ccc43)cc2)C1` [Compound 17, (R,E)-8-(2,4-dichlorophenyl)-9-(4-((1-(4-(dimethylamino)-4-oxobut-2-en-1-yl)pyrrolidin-3-yl)amino)phenyl)-6,7-dihydro-5H-benzo[7]annulene-3-carboxylic acid], the IC50 (MCF7-Y537S cells) was 138 nM, the IC50 (HCC1428-LTED cells) was 1 nM and the IC50 (MCF7-WT cells) was 10 nM.

In the case of `CN(C)C(=O)/C=C/CN1CC[C@H](Oc2ccc(C3=C(c4cccc(F)c4Cl)CCCc4cc(C(=O)O)ccc43)cc2)C1` [Compound 4, (S,E)-8-(2-chloro-3-fluorophenyl)-9-(4-((1-(4-(dimethylamino)-4-oxobut-2-en-1-yl)pyrrolidin-3-yl)oxy)phenyl)-6,7-dihydro-5H-benzo[7]annulene-3-carboxylic acid], the IC50 (MCF7-Y537S cells) is reported as no less than 500 nM, the IC50 (HCC1428-LTED cells) is reported as 2 nM and the IC50 (MCF7-WT cells) is reported as 22 nM.

`CN(C)C(=O)/C=C/CN1CC[C@@H](Oc2ccc(C3=C(c4ccc(Cl)cc4Cl)CCCc4cc(C(=O)O)ccc43)cc2)C1` [Compound 15, (R,E)-8-(2,4-dichlorophenyl)-9-(4-((1-(4-(dimethylamino)-4-oxobut-2-en-1-yl)pyrrolidin-3-yl)oxy)phenyl)-6,7-dihydro-5H-benzo[7]annulene-3-carboxylic acid] gave an IC50 (MCF7-Y537S cells) of 186 nM, an IC50 (HCC1428-LTED cells) of 5 nM and an IC50 (MCF7-WT cells) of 53 nM.

Molecule `CN(C)C(=O)/C=C/CN1CC(Cc2ccc(C3=C(c4ccc(Cl)cc4Cl)CCCc4cc(C(=O)O)ccc43)cc2)C1` [Compound 13, (E)-8-(2,4-dichlorophenyl)-9-(4-((1-(4-(dimethylamino)-4-oxobut-2-en-1-yl)azetidin-3-yl)methyl)phenyl)-6,7-dihydro-5H-benzo[7]annulene-3-carboxylic acid compound with 2,2,2-trifluoroacetic acid (1:1)] has an IC50 (MCF7-Y537S cells) of 9 nM, an IC50 (HCC1428-LTED cells) of 0.01 nM and an IC50 (MCF7-WT cells) of 3 nM.
